The values below are quoted from earlier work in patent US5840324A, “Antiparasitic compositions” (Commonwealth Scientific and Industrial Organisation, priority 1993, dated 1998).

The structures appear in SMILES notation.

The conditions of data set [1]: for absorption: conventional dosing; for time of maximum concentration in the bloodstream: after oral administration; for activity of metabolic products: degradation products of absorbed compound.

With `CCCSc1ccc2nc(NC(=O)OC)[nH]c2c1` [ABZ, [5-(propylthio)-1H-benzimidazol-2-yl]carbamic acid methyl ester], the “absorption of ABZ in the abomasum” value is “virtually no absorption”.
`Cc1cc(C(C#N)c2ccc(Cl)cc2)c(Cl)cc1NC(=O)c1cc(I)cc(I)c1O` (stereo not drawn) [closantel, 5'-chloro-4'-(4-chloro-α-cyanobenzyl)-3,5-diiodosalicyl-o-toluidide]: the “association with plasma albumin” value in the data set on plasma albumin was “very strongly associate with plasma albumin”. Besides, the “retention in the bloodstream at efficacious levels” value in data set [1] (against blood-consuming parasites) was 3-4 weeks. The absorption entry in data set [1] is given as “slowly absorbed”. In data set [1] (in vivo), the “dose lost in faeces” value was “about 50%”.
With `CN1CCCN=C1/C=C/c1cccs1` [pyrantel, 1,4,5,6-tetrahydro-1-methyl-2-[(E)-2-(2-thienyl)-vinyl]-pyrimidine-4,4'-methylenebis-(3-hydroxy-2-naphthoate)], in data set [1], the “time of maximum concentration in the bloodstream” value (from here on “time of maximum concentration”) is 2 to 4 h, the absorption entry is recorded as “rapidly absorbed from the rumen” and the “activity of metabolic products” value was “completely inactive”. In addition, in data set [1] (in vivo), the “excretion of absorbed drug” value is on record as “rapidly excreted, predominantly in urine” and the metabolism result is on record as “degraded at a rate consistent with first-pass metabolism”.
With `Cc1ccsc1/C=C/C1=NCCCN1C` [morantel, (E)-1,4,5,6-tetrahydro-1-methyl-2-[2-(3-methyl-2-thienyl)vinyl]-pyrimidine], in data set [1], the “time of maximum concentration” value was 2 to 4 h, the absorption result is “rapidly absorbed from the rumen” and the “activity of metabolic products” value was “completely inactive”. In data set [1] (in vivo), the “excretion of absorbed drug” value was “rapidly excreted, predominantly in urine” and the metabolism entry is listed as “degraded at a rate consistent with first-pass metabolism”.
For the compound `Cl.c1ccc([C@H]2CN3CCSC3=N2)cc1` [Levamisole, (-)-(S)-2,3,5,6-tetrahydro-6-phenylimidazo[2,1-b]thiazole hydrochloride], in data set [1], the “time of maximum concentration” value was 2 to 4 h and the absorption result is reported as “rapidly absorbed from the rumen”. Besides, in data set [1] (in vivo), the “excretion of absorbed drug” value is listed as “rapidly excreted, predominantly in urine” and the metabolism result is on record as “rapidly metabolised”.
